Entries after “also recorded” stand apart in the source; their conditions may differ.
Assays:
K19 = K19 quantitative immunohistochemistry in organ-cultured human scalp hair follicles; assay type: cell-based; conditions: for Keratin 19 immunoreactivity: all concentrations tested
Description: (§1) Normal human scalp skin was obtained from 6 women undergoing routine face-lift surgery after informed consent. All experiments were performed according to Helsinki guidelines, with appropriate ethics committee approval.
(§2) Normally pigmented anagen VI hair follicles (HFs) (grey/white HFs were excluded from the study) were microdissected from normal human scalp skin and organ cultured following the Philpott model. Compound A or vehicle was administered once for each change of medium (i.e. every 48 h/72 h).
A previously described protocol was used to investigate K19 expression (Kloepper et al., 2008). Briefly, acetone-fixed cryosections were pre-treated with goat serum (10% in Tris-buffered saline, Dako). The sections were incubated first with primary antibodies against K19 (mouse anti-human: K19-1:10; overnight, at 4° C.; PROGEN, Heidelberg, Germany;) and then with FITC-labeled goat anti-mouse (1:200 in TBS, for 45 min, RT, Jackson ImmunoResearch) immunoglobulins as secondary antibodies. Counterstaining was performed with DAPI (Boehringer Mannheim, Mannheim, Germany). The intensity of this immunostaining was quantified by ImageJ software (National Institutes of Health). The staining intensity of defined reference regions in the HF was measured and compared between control and Compound A-treated groups. The percentage of K19-positive cells in comparison to the total amount of cells in the ORS was calculated.
Statistical analysis was performed using a two-tailed Student's t-test for unpaired samples. For meta-analysis purposes, a total of six assays (each with HFs from a different female individual) were run. […] In order to avoid data distortion by individual experiments, rigid exclusion criteria were defined that allowed to exclude one individual experiment (out of 5-6) per read-out parameter. Since these exclusion criteria differed for each study parameter, different experiments (i.e. one out of 6, and one out of 5 in the case of keratin 19 analysis) were excluded for each assay parameter. The exclusion criteria were: (i) most extreme deviation from the results trend shown by the majority among the 6 experiments, in order to avoid data distortion by outliers (which can be affected e.g. by patient's medication, medical history etc.); and (ii) failure to meet minimal quality criteria.

[1] = test system: anagen VI hair follicles (HFs); test: LDH activity in supernatant of hair follicle organ culture (cytotoxicity); assay type: cell-based, human; conditions: for LDH activity in the supernatant: 0.1 mM dose, day 6, pooled data
Description: as §2
(§3) Details regarding tissue specimen origin used in the present example are as described in Example 2 above.
LDH activity in the supernatant can serve as an indicator of cytotoxicity and was measured following the manufacturer's instructions (Cytotoxicity Detection Kit; Roche, Mannheim, Germany). The absorbance of the samples was measured at 490 nm using an ELISA plate-reader.
(§4) To evaluate apoptotic cells in colocalization with a proliferation marker Ki-67, a Ki-67/terminal dUTP nick-end labeling (TUNEL) double-staining method was used. Cryostat sections were fixed in paraformaldehyde and ethanol-acetic acid (2:1) and labeled with a digoxigenin-deoxy-UTP (ApopTag fluorescein in situ apoptosis detection kit; Intergen, Purchase, N.Y.) in the presence of terminal deoxynucleotidyl transferase, followed by incubation with a mouse anti-Ki-67 antiserum (1:20 in PBS overnight at 4 C; Dako, Glostrup, Denmark). TUNEL-positive cells were visualized by an antidigoxigenin fluorescein isothiocyanate-conjugated antibody (ApopTag kit), whereas Ki-67 was detected by a rhodamine-labeled goat antimouse antibody (Jackson ImmunoResearch, West Grove, Pa.). Negative controls were performed by omitting terminal deoxynucleotidyltransferase and the Ki-67 antibody. Counterstaining was performed with 4′,6-diamidino-2-phenylindole (DAPI) (Roche Molecular Biochemicals GmbH, Mannheim, Germany). Quantitative immunohistomorphometry was performed; Ki-67-, TUNEL-, or DAPI-positive cells were counted in a previously defined reference region of the HF matrix, and the percentage of Ki-67/TUNEL-positive cells were determined. […] In order to avoid data distortion by individual experiments, rigid exclusion criteria were defined that allowed to exclude one individual experiment (out of 5-6) per read-out parameter. […]

[2] = test system: anagen VI hair follicles (HFs); test: HF cycle staging (anagen/catagen) in hair follicle organ culture; assay type: cell-based, human
Description: as §2, §3
HF cycle staging was carried out according to previously defined morphological criteria, and the percentage of HFs in anagen and early, mid, or late catagen was determined.
as §4, with “determined. Statistical analysis was performed using a two-tailed Student's t-test for unpaired samples.” for “determined.”

keratin K15 = test: K15 quantitative immunohistochemistry in organ-cultured human scalp hair follicles; assay type: cell-based; conditions: human scalp HF organ culture; for Keratin-15 immunoreactivity: all concentrations tested, pooled data
Description: as §1, §2
To investigate keratin K15 expression, the tyramide signal amplification method was used as previously described (Kloepper et al., 2008). Briefly, acetone fixed cryosections were washed three times for 5 min using TNT (Tris-HCL NaCl Tween) buffer (0.1 mol/1 Tris-HCl, pH 7.5; containing 0.15 mol/1 NaCl and 0.05% Tween 20). Next, horseradish peroxidase was blocked by washing with 3% H2O2 in phosphate-buffered saline (PBS) for 15 min. Preincubation was performed with the incubation of avidin and biotin for 15 min and 5% goat normal serum in TNT for 30 min with washing steps in between. Mouse anti-human K15 (clone LHK15, Chemicon, Billerica, USA) was diluted in TNT and incubated overnight at 4° C. followed by a biotinylated secondary antibody goat anti-mouse (1:200 in TNT) for 45 min at RT. Next, streptavidin horseradish peroxidase (TSA kit; Perkin-Elmer, Boston, Mass., USA) was administered (1:100 in TNT) for 30 min at RT. […] The intensity of the immunostaining was quantified by ImageJ software (National Institutes of Health). The staining intensity of defined reference regions in the HF was measured and compared between control and N Compound A-treated groups. The percentage of K15-positive cells in comparison to the total amount of cells in the ORS was calculated.
Statistical analysis was performed using a two-tailed Student's t-test for unpaired samples. […] In order to avoid data distortion by individual experiments, rigid exclusion criteria were defined that allowed to exclude one individual experiment (out of 5-6) per read-out parameter. […]

[3] = test system: anagen VI hair follicles (HFs); test: Hair shaft elongation in hair follicle organ culture; assay type: cell-based, human
Description: as §2, §3
Hair shaft length measurements of HFs were performed on individual HFs using a Zeiss inverted binocular microscope with an eyepiece measuring graticule.
as §4, with “determined. Statistical analysis was performed using a two-tailed Student's t-test for unpaired samples.” for “determined.”

[4] = listed as N-acetyl-(R)-(−)-3-(4-aminophenyl)-2-methoxypropionic acid

With `CO[C@H](Cc1ccc(NC(C)=O)cc1)C(=O)O` [Compound A, N-acetyl-(R)-(−)-3-(4-aminophenyl)-2-methoxypropionic acid] the “Keratin 19 immunoreactivity” value (K19; human scalp HF organ culture, pooled data) was “strongly stimulated”, the “Keratin 19 immunoreactivity” value (K19; human scalp HF organ culture, pooled data, listed as N-acetyl-(R)-(−)-3-(4-aminophenyl)-2-methoxypropionic acid) was “stimulation” and the “number of K19-positive cells relative to control” value (K19; human scalp HF organ culture) was “stimulating effect”. For the same compound, the “numbers of K19 positive cells” value (K19; low and high concentrations, pooled data) was “increased numbers”, the “LDH activity in the supernatant” value [1] was “slight increase” and the “LDH activity in the supernatant” value [1, 4] was “increase”. The “HF toxicity under assay conditions” value ([1]; concluded from LDH activity) was “very low, if any”, the “hair cycle effect (catagen)” value ([2]; all concentrations, pooled data) was “induced catagen; also recorded: catagen-inducing effect” and the “hair cycle effect (catagen)” value ([2]; analysis of the individual 5 experiments, percentage of each hair cycle stage, n=5) was “strong trend towards induction of catagen”. The “hair cycle effect (catagen)” value ([2]; analysis of the individual 5 experiments, percentage of each hair cycle stage, n=5, listed as N-acetyl-(R)-(−)-3-(4-aminophenyl)-2-methoxypropionic acid) was “trend toward catagen”, the Keratin-15 immunoreactivity (keratin K15) was “strongly stimulated” and the Keratin-15 immunoreactivity (keratin K15; [4]) was “stimulation”. The “number of K15-positive cells” value (keratin K15) was “did not increase”, the hair shaft elongation ([3]; high dose (1 mM), day 6, pooled data) was “slightly, but significantly, inhibited; also recorded: inhibits hair shaft elongation” and the hair shaft elongation ([3]; high dose (1 mM), day 6, pooled data, listed as N-acetyl-(R)-(−)-3-(4-aminophenyl)-2-methoxypropionic acid) was “inhibition”. For the same compound, the hair shaft elongation ([3]; lower concentrations (below 1 mM)) was “did not have an effect”.

Source: US20150265514A1, “METHODS OF INHIBITING HAIR GROWTH” (NOGRA PHARMA LIMITED, priority 2012, published 2015)
